Source: article PMC4926073, “Absorption and Transport of Sea Cucumber Saponins from Apostichopus japonicus” (Marine Drugs, 2016)
Read-outs that look alike come from different tables or passages of the source.

Key:
Caco-2 cell monolayer [1] = conditions: human
in vivo [2] = conditions: male, Wistar, rat, iv, 20 mg/kg
in vitro = conditions: human; for recovery: Caco-2, Recovery (AP + BL chambers + cell monolayer)
[3] = Single-pass intestinal perfusion in rats; conditions: for concentration-dependent changes in permeability: 1, 5, 25 μg/mL
Protocol: (§1) Data were expressed as the means ± SD of three determinations: Peff = −Q ln [Cout/Cin]/2πrl(2)
(§2) In which Cin is the inlet concentration and Cout is the outlet concentration of compound, which is corrected for volume change in the segment using phenol red concentration in the inlet and outlet tubing. Q is the flow rate (0.2 mL/min), r is the rat intestinal radius (0.18 cm), and l is the length of the segment [32].
(§3) The rats were anaesthetized with an intra-abdominal injection of 10% chloral hydrate at a dose of 5 mL/kg. The enterocoelia of the rat was dissected by a 3–4 cm midline length, a segment of intestine about 10 cm long was separated and washed with saline. Silicone tubing was inserted into both sides of the segment of intestine and a peristaltic pump was connected to the proximal side of the tube. A pledget with saline was added onto the surgical area to avoid loss of fluid. The segment was cleared with 37 °C saline firstly, then blank K-R buffer solution was infused at the inlet and blank perfusate was collected at the outlet. The segment was infused with perfusate containing phenol red and different concentrations of sea cucumber saponins (1, 5, and 25 μg/mL) at a flow rate of 2 mL/min. Then the rate was reduced to 0.2 mL/min for 30 min until steady-state. Samples were obtained from the outlet of the segment every 15 min and stored at −20 °C for analysis. Different concentrations of sea cucumber saponins were perfused to highlight the absorption mechanism of sea cucumber saponins, which were investigated by the concentration-dependent change of the permeability values. 400 μg/mL verapamil was added to the perfusion solution containing 5 μg/mL sea cucumber saponins and 20 μg/mL phenol red to investigate whether the intestinal absorption of sea cucumber saponins were affected by P-gp.

Caco-2 cell monolayer [4] = assay: Transepithelial transport across Caco-2 cell monolayer
[5] = In vivo pharmacokinetics in rats after oral administration; conditions: 20 mg/kg
[6] = Freeze-thaw, short-term and long-term stability in rat plasma; conditions: for Short-Term Stability, Accuracy (%): ambient temperature 24 h; for Long-Term Stability, Accuracy (%): ambient temperature 5 d
[7] = Freeze-thaw, short-term and long-term stability in perfusate (Krebs-Ringer buffer solution); conditions: for Short-Term Stability, Accuracy (%): ambient temperature 24 h; for Long-Term Stability, Accuracy (%): ambient temperature 5 d
[8] = rat
[9] = rat, in vivo, 20 mg/kg
[10] = rat; remark: listed apart in the source
Protocol: as §1, §2, §3

in vivo [11] = conditions: rat
Protocol: as §1, §2, §3

[12] = nominal conc. 100.00 ng/mL, frozen at −20 °C 24 h, thawed at ambient temperature
[13] = range over freeze-thaw, short-term, long-term and both compounds

CO[C@@H]1[C@@H](O)[C@H](O[C@@H]2[C@@H](O)[C@H](O[C@H]3[C@H](O)[C@@H](O)[C@H](O[C@H]4[C@H](O[C@H]5CC[C@]6(C)C7=C[C@H](O)[C@]89C(=O)O[C@@](C)(CCCC(C)C)[C@@]8(O)CC[C@@]9(C)C7CCC6C5(C)C)OC[C@@H](OS(=O)(=O)O)[C@@H]4O)O[C@@H]3C)O[C@H](CO)[C@H]2O)O[C@H](CO)[C@H]1O (stereo partly shown) [Echinoside A]
Papp AP-BL (Caco-2 cell monolayer [1]): 4.04 ± 0.39 × 10^−6, cm·s^−1 | Papp BL-AP (Caco-2 cell monolayer [1]): 5.33 ± 0.70 × 10^−6, cm·s^−1 | AUC (in vivo [2]): 16400 ± 450 ng·h/mL | Cmax (in vivo [2]): 4000 ± 440 ng/mL | Tmax (in vivo [2]): 4.8 min | half-life (in vivo [2]): 511 ± 19.2 min | Papp A→B (in vitro; Caco-2): 3.96 ± 0.55 ×10⁻⁶ cm/s | Papp B→A (in vitro; Caco-2): 5.38 ± 0.81 ×10⁻⁶ cm/s | recovery (in vitro; time 60 min): 97.4 ± 2.76% | recovery (in vitro; time 90 min): 98.2 ± 1.97% | recovery (in vitro; time 120 min): 96.6 ± 2.33% | recovery (in vitro; time 150 min): 96.5 ± 2.04% | concentration-dependent changes in permeability ([3]; rat single-pass intestinal perfusion): not found | change in permeability when verapamil was added to the perfusate ([3]; rat single-pass intestinal perfusion, verapamil 400 μg/mL): No significant increase | Papp ([3]; rat, other: single-pass intestinal perfusion): 25 ×10⁻⁶ cm/s | AP Chamber (%) recovered (Caco-2 cell monolayer [4]; time 60 min): 82.14 ± 2.85% | BL Chamber (%) recovered (Caco-2 cell monolayer [4]; time 60 min): 1.04 ± 0.12% | Cell Fraction (%) recovered (Caco-2 cell monolayer [4]; time 60 min): 14.22 ± 1.14% | AP Chamber (%) recovered (Caco-2 cell monolayer [4]; time 90 min): 81.63 ± 2.04% | BL Chamber (%) recovered (Caco-2 cell monolayer [4]; time 90 min): 1.51 ± 0.11% | Cell Fraction (%) recovered (Caco-2 cell monolayer [4]; time 90 min): 15.05 ± 1.29% | AP Chamber (%) recovered (Caco-2 cell monolayer [4]; time 120 min): 80.25 ± 2.67% | BL Chamber (%) recovered (Caco-2 cell monolayer [4]; time 120 min): 1.90 ± 0.20% | Cell Fraction (%) recovered (Caco-2 cell monolayer [4]; time 120 min): 14.43 ± 1.24% | AP Chamber (%) recovered (Caco-2 cell monolayer [4]; time 150 min): 79.38 ± 2.21% | BL Chamber (%) recovered (Caco-2 cell monolayer [4]; time 150 min): 2.36 ± 0.21% | Cell Fraction (%) recovered (Caco-2 cell monolayer [4]; time 150 min): 14.78 ± 0.92% | transport mechanism across Caco-2 monolayer (Caco-2 cell monolayer [4]; with and without P-gp inhibitor verapamil 100 μM): transported by passive diffusion without the participation of P-gp | bioavailability ([5]; male, Wistar, rat, in vivo): 59% | AUC ([5]; male, Wistar, rat, in vivo, po): 9270 ± 390 ng·h/mL | Cmax ([5]; male, Wistar, rat, in vivo, po): 910 ± 20 ng/mL | half-life ([5]; male, Wistar, rat, in vivo, po, T1/2, rat): 419 min | Tmax ([5]; male, Wistar, rat, in vivo, po, Tmax): ≤ 3 h | time at which detected in rat plasma after oral administration ([5]; oral): 1 h | T1/2 ([5]; rat, oral): 6.9 ± 0.32 h | max value of the concentration in the plasma ([5]; rat, oral): 910 ng/mL | Short-Term Stability, Accuracy (%) ([6]; nominal conc. 100.00 ng/mL): 95.4% | Long-Term Stability, Accuracy (%) ([6]; nominal conc. 100.00 ng/mL): 97.2% | Freeze-Thaw Stability, Accuracy (%) [6, 12]: 94.4% | Freeze-Thaw Stability, Accuracy (%) ([6]; nominal conc. 1000.00 ng/mL): 96.7% | Short-Term Stability, Accuracy (%) ([6]; nominal conc. 1000.00 ng/mL): 96.0% | Long-Term Stability, Accuracy (%) ([6]; nominal conc. 1000.00 ng/mL): 102.1% | Freeze-Thaw Stability, Accuracy (%) ([6]; nominal conc. 5000.00 ng/mL): 98.9% | Short-Term Stability, Accuracy (%) ([6]; nominal conc. 5000.00 ng/mL): 102.4% | Long-Term Stability, Accuracy (%) ([6]; nominal conc. 5000.00 ng/mL): 100.3% | stability in plasma under three conditions [6, 13]: 93.4%–102.4 | Short-Term Stability, Accuracy (%) ([7]; nominal conc. 100.00 ng/mL): 90.8% | Long-Term Stability, Accuracy (%) ([7]; nominal conc. 100.00 ng/mL): 89.2% | Freeze-Thaw Stability, Accuracy (%) [7, 12]: 91.6% | Freeze-Thaw Stability, Accuracy (%) ([7]; nominal conc. 1000.00 ng/mL): 91.9% | Short-Term Stability, Accuracy (%) ([7]; nominal conc. 1000.00 ng/mL): 91.3% | Long-Term Stability, Accuracy (%) ([7]; nominal conc. 1000.00 ng/mL): 92.6% | Freeze-Thaw Stability, Accuracy (%) ([7]; nominal conc. 5000.00 ng/mL): 93.5% | Short-Term Stability, Accuracy (%) ([7]; nominal conc. 5000.00 ng/mL): 94.4% | Long-Term Stability, Accuracy (%) ([7]; nominal conc. 5000.00 ng/mL): 91.1% | stability in perfusate under three conditions [7, 13]: 88.2%–94.8

C=C(C)CCCC1(C)OC(=O)C23CC=C4C(CCC5C4(C)CCC(OC4OCC(OC6OC(CO)C(O)C(OC7OC(CO)C(O)C(OC)C7O)C6O)C(O)C4OC4OC(C)C(OC6OCC(O)C(OC7OC(CO)C(O)C(OC)C7O)C6O)C(O)C4O)C5(C)C)C2(C)CC(=O)C13 (stereo not shown) [Holotoxin A1]
stability in plasma under three conditions [8]: 93.4%–102.4 | detection in the plasma after oral administration [9]: not detected | Papp AP-BL (Caco-2 cell monolayer [1]): <0.83 × 10^−6, cm·s^−1 | PappAB (Papp AP to BL) (Caco-2 cell monolayer [1]): less than 0.83 × 10^−6 cm·s^−1 | change in permeability when verapamil was added to the perfusate [10]: No significant increase | AUC (in vivo [2]): 6530 ± 150 ng·h/mL | Cmax (in vivo [2]): 2870 ± 170 ng/mL | Tmax (in vivo [2]): 4.8 min | half-life (in vivo [2]): 264 ± 3.6 min | Papp (in vivo [11]): 2.67 ×10⁻⁶ cm/s | Papp A→B (in vitro; Caco-2): < 0.83 ×10⁻⁶ cm/s | Papp B→A (in vitro; Caco-2): < 0.83 ×10⁻⁶ cm/s | concentration-dependent changes in permeability [3]: not found | AP Chamber (%) recovered (Caco-2 cell monolayer [4]; time 60 min): 97.66 ± 2.02% | AP Chamber (%) recovered (Caco-2 cell monolayer [4]; time 90 min): 96.56 ± 1.89% | AP Chamber (%) recovered (Caco-2 cell monolayer [4]; time 120 min): 95.46 ± 1.72% | AP Chamber (%) recovered (Caco-2 cell monolayer [4]; time 150 min): 95.90 ± 2.27% | BL Chamber (%) recovered (Caco-2 cell monolayer [4]; time 150 min): <0.2% | Cell Fraction (%) recovered (Caco-2 cell monolayer [4]; time 150 min): <0.2%

CC(C)NCC(O)COc1cccc2ccccc12 (stereo not shown) [propranolol, reference compound]
Papp A→B at 150 min, 20 µM (in vitro; Caco-2): 26.1 ± 1.2 ×10⁻⁶ cm/s
